Assay [1] concerns the target BACE1 (Homo sapiens (Human), UniProt P56817). The experiment in a line: Cellular Aβ-lowering assay (Aβ40 ELISA, HEK293 cells expressing human APP695). In kind it is cell-based. To be noted: HEK293 cells stably transfected with human APP695; 18-20 hrs incubation; Aβ40 in supernatant; read-out: BACE1 cell act. Aβ40 IC50. Here is the method:
Cellular Aβ-Lowering Assay:
Human HEK293 cells which are stably transfected with a vector expressing a cDNA of the human APP wt gene (APP695) were used to assess the potency of the compounds in a cellular assay. The cells were seeded in 96-well microtiter plates in cell culture medium (Iscove, plus 10% (v/v) fetal bovine serum, glutamine, penicillin/streptomycin) to about 80% confluence and the compounds were added at a 10× concentration in 1/10 volume of medium without FCS containing 8% DMSO (final concentration of DMSO was kept at 0.8% v/v). After 18-20 hrs incubation at 37° C. and 5% CO2 in a humidified incubator the culture supernatant was harvested for the determination of […] concentrations. 96well ELISA plates (e.g., Nunc MaxiSorb) were coated with monoclonal antibody which specifically recognize the C-terminal end of […] (Brockhaus et al., NeuroReport 9, 1481-1486; 1998). After blocking of non-specific binding sites with e.g. 1% BSA and washing, the culture supernatants were added in suitable dilutions together with a horseradish peroxidase-coupled Aβ detection antibody (e.g., antibody 4G8, Senetek, Maryland Heights, Mo.) and incubated for 5 to 7 hrs. Subsequently the wells of the microtiter plate were washed extensively with Tris-buffered saline containing 0.05% Tween 20 and the assay was developed with tetramethylbenzidine/H2O2 in citric acid buffer. After stopping the reaction with one volume 1 N H2SO4 the reaction was measured in an ELISA reader at 450 nm wavelength. The concentrations of Aβ in the culture supernatants were calculated from a standard curve obtained with known amounts of pure Aβ peptide.

In assay [2] the target is BACE2 (Rattus norvegicus (Rat), UniProt Q6IE75). The experiment in a line: Assay for BACE inhibition by measuring cellular TMEM27 cleavage (INS-TMEM27 cells, ELISA). In kind it is cell-based. To be noted: INS-TMEM27 (INS1e-derived) cells; shed TMEM27 in supernatant; read-out: BACE2 cell act. IC50. An excerpt: Assay for BACE Inhibition by Measuring Cellular TMEM27 Cleavage:
The assay uses the principle of inhibition of human TMEM27 cleavage by endogenous cellular BACE2 in the Ins1e rat cell line and shedding from the cell surface into the culture medium, followed by detection in an ELISA assay. Inhibition of BACE2 prevents the cleavage and shedding in a dose-dependent manner
The stable cell line “INS-TMEM27” represents an INS1e-derived cell line with inducible expression (using the TetOn system) of full-length hTMEM27 in a doxycycline-dependent manner. The cells are cultured throughout the experiment in RPMI1640 +Glutamax (Invitrogen) Penicillin/Streptomycin, 10% Fetal bovine serum, […], […], 100 micrograms/ml G418 and 100 microgram/ml hygromycin and are grown inadherent culture at 37° C. in a standard CO2 cell culture incubator.
INS-TMEM27 cells are seeded in 96-well plates. After 2 days in culture, BACE2 inhibitor is added in a range of concentrations as required by the assay and after a further two hours, doxycycline is added to a final concentration of 500 ng/ml. The cells are incubated for a further 46 hours and the supernatant harvested for detection of shed TMEM27.
An ELISA assay (using a pair of mouse anti-human-TMEM27 antibodies, raised against the extracellular domain of TMEM27) is used for detection of TMEM27 in the culture medium. An EC50 for BACE2 inhibition is calculated using the ELISA readout for each inhibitor concentration with standard curve-fitting software such as XLFit for the Excel spreadsheet program.
For orientation: In an ELISA, binding on a coated surface is turned into a signal by an enzyme label.

The values that follow come from patent US9242943B2, “1,4 oxazines as BACE1 and/or BACE2 inhibitors” (SIENA BIOTECH S.P.A., priority 2011, dated 2016).

Broadly, the IC50 is the concentration at which inhibition is half-maximal.

Sequence of BACE2 (Q6IE75 63-514): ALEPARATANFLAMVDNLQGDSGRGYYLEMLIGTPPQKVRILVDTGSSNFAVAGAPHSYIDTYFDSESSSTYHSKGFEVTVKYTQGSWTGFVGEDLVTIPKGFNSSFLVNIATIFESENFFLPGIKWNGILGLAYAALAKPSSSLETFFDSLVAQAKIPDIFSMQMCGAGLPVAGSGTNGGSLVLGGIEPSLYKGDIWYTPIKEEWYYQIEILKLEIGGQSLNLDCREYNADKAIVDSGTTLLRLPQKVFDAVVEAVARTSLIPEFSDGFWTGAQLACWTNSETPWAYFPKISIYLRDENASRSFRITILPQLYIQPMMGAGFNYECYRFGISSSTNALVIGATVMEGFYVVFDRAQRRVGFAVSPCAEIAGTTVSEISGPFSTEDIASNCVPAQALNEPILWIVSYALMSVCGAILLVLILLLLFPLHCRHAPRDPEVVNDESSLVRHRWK
Sequence of BACE1 (P56817 46-501): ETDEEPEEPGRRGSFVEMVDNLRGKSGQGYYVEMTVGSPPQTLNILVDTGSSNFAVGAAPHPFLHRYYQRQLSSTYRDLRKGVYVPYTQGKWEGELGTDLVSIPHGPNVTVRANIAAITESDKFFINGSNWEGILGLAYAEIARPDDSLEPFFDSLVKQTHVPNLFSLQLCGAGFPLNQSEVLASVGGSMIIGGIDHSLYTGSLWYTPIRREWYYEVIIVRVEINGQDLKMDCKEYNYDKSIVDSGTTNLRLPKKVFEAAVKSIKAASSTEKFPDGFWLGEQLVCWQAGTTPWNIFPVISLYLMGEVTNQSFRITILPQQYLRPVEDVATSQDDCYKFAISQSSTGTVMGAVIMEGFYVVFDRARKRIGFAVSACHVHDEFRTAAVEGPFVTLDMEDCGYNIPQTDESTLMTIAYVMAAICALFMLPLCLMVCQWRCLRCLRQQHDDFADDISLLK

As for `CC1(c2cccc(NCc3ccc(Cl)cc3)c2)COCC(N)=N1` (stereo not shown) [Example 2, 5-[3-(4-Chloro-benzylamino)-phenyl]-5-methyl-5,6-dihydro-2H-[1,4]oxazin-3-ylamine], the IC50 in assay [1] came out at 450 nM.

With `CCCCNc1ccc(F)c([C@]2(C)COCC(N)=N2)c1` [Example 5, (R)-5-(5-Butylamino-2-fluoro-phenyl)-5-methyl-5,6-dihydro-2H-[1,4]oxazin-3-ylamine], the IC50 in assay [1] is 340 nM.

Consider `CC(C)CCNc1ccc(F)c([C@]2(C)COCC(N)=N2)c1` [Example 6, (R)-5-(2-fluoro-5-(isopentylamino)phenyl)-5-methyl-5,6-dihydro-2H-1,4-oxazin-3-amine], for which the IC50 in assay [1] was 1360 nM; in assay [2] it was 605 nM.

On to `CC(C)C(C)Nc1ccc(F)c([C@]2(C)COCC(N)=N2)c1` (stereo partly drawn) [Example 8, (5R)-5-(2-fluoro-5-(3-methylbutan-2-ylamino)phenyl)-5-methyl-5,6-dihydro-2H-1,4-oxazin-3-amine], for which the IC50 in assay [1] was found to be 2190 nM. On the same count and under the same terms, then `C[C@@]1(c2cc(NCC(F)(F)F)ccc2F)COCC(N)=N1` [Example 9, (R)-5-(2-fluoro-5-(2,2,2-trifluoroethylamino)phenyl)-5-methyl-5,6-dihydro-2H-1,4-oxazin-3-amine], with 350 nM; and `C[C@@]1(c2cc(NCC(F)F)ccc2F)COCC(N)=N1` [Example 10, (R)-5-[5-(2,2-Difluoro-ethylamino)-2-fluoro-phenyl]-5-methyl-5,6-dihydro-2H-[1,4]oxazin-3-ylamine], with 410 nM. Consider `C[C@@]1(c2cc(NCCC(F)(F)F)ccc2F)COCC(N)=N1` [Example 12, (R)-5-(2-fluoro-5-(3,3,3-trifluoropropylamino)phenyl)-5-methyl-5,6-dihydro-2H-1,4-oxazin-3-amine], for which the figures for the IC50 in assay [1] and in assay [2] were 1090 nM and 2900 nM, respectively. Consider `CSCCCNc1ccc(F)c([C@]2(C)COCC(N)=N2)c1` [Example 13, (R)-5-(2-fluoro-5-(3-(methylthio)propylamino)phenyl)-5-methyl-5,6-dihydro-2H-1,4-oxazin-3-amine], for which the IC50 in assay [1] was 310 nM.

As to `C[C@@]1(c2cc(NC3CCC3)ccc2F)COCC(N)=N1` [Example 14, (R)-5-(5-Cyclobutylamino-2-fluoro-phenyl)-5-methyl-5,6-dihydro-2H-[1,4]oxazin-3-ylamine], the IC50 was found to be 260 nM in assay [1] and 1170 nM in assay [2]. As to `C[C@@]1(c2cc(NC3CCCC3)ccc2F)COCC(N)=N1` [Example 15, (R)-5-(5-(cyclopentylamino)-2-fluorophenyl)-5-methyl-5,6-dihydro-2H-1,4-oxazin-3-amine], the figures for the IC50 in assay [1] and in assay [2] were 120 nM and 170 nM, respectively. The like results for `C[C@@]1(c2cc(NC3CCOC3)ccc2F)COCC(N)=N1` (stereo partly drawn) [Example 18, (R)-5-[2-Fluoro-5-(tetrahydro-furan-3-ylamino)-phenyl]-5-methyl-5,6-dihydro-2H-[1,4]oxazin-3-ylamine] were, in that order, 320 nM and 3390 nM. The like results for `C[C@@]1(c2cc(N[C@H]3CCC[C@@H]3O)ccc2F)COCC(N)=N1` [Example 19, (1S,2S)-2-(3-((R)-5-amino-3-methyl-3,6-dihydro-2H-1,4-oxazin-3-yl)-4-fluorophenylamino)cyclopentanol] were, in that order, 1210 nM and 3420 nM. The like results for `C[C@@]1(c2cc(N[C@H]3CCC[C@H]3O)ccc2F)COCC(N)=N1` [Example 20, (1R,2S)-2-(3-((R)-5-amino-3-methyl-3,6-dihydro-2H-1,4-oxazin-3-yl)-4-fluorophenylamino)cyclopentanol] were, in that order, 610 nM and 2270 nM. As to `C[C@@]1(c2cc(NCC3CC3)ccc2F)COCC(N)=N1` [Example 21, (R)-5-(5-(cyclopropylmethylamino)-2-fluorophenyl)-5-methyl-5,6-dihydro-2H-1,4-oxazin-3-amine], the IC50 in assay [1] amounted to 130 nM; in assay [2], 279 nM. The like results for `C[C@@]1(c2cc(NC[C@H]3CCCO3)ccc2F)COCC(N)=N1` [Example 22, (R)-5-(2-fluoro-5-(((R)-tetrahydrofuran-2-yl)methylamino)phenyl)-5-methyl-5,6-dihydro-2H-1,4-oxazin-3-amine] were, in that order, 1110 nM and 2430 nM.

Consider `CC(C)C(Nc1ccc(F)c([C@]2(C)COCC(N)=N2)c1)c1ccc(Cl)cn1` (stereo partly drawn) [Example 23, (R)-5-{5-[1-(5-Chloro-pyridin-2-yl)-2-methyl-propylamino]-2-fluoro-phenyl}-5-methyl-5,6-dihydro-2H-[1,4]oxazin-3-ylamine], for which the IC50 in assay [1] was 3710 nM; in assay [2] it was 1660 nM. For the molecule `C[C@@]1(c2cc(Nc3cc(F)cc4cc(Cl)cnc34)ccc2F)COCC(N)=N1` [Example 28, [3-((R)-5-Amino-3-methyl-3,6-dihydro-2H-[1,4]oxazin-3-yl)-4-fluoro-phenyl]-(3-chloro-6-fluoro-quinolin-8-yl)-amine], the IC50 in assay [1] came out at 44 nM. On the same count and under the same terms, then `C[C@@]1(c2cc(Nc3cccc4cc(OCCF)cnc34)ccc2F)COCC(N)=N1` [Example 30, [3-((R)-5-Amino-3-methyl-3,6-dihydro-2H-[1,4]oxazin-3-yl)-4-fluoro-phenyl]-[3-(2-fluoro-ethoxy)-quinolin-8-yl]-amine], with 4770 nM; and `C[C@@]1(c2cc(Nc3cc(F)cc4cc(OCC5CC5)cnc34)ccc2F)COCC(N)=N1` [Example 31, [3-((R)-5-Amino-3-methyl-3,6-dihydro-2H-[1,4]oxazin-3-yl)-4-fluoro-phenyl]-(3-cyclopropylmethoxy-6-fluoro-quinolin-8-yl)-amine], with 6900 nM; and `C[C@@]1(c2cc(Nc3cccc4cc(OCC(F)(F)F)cnc34)ccc2F)COCC(N)=N1` [Example 32, [3-((R)-5-Amino-3-methyl-3,6-dihydro-2H-[1,4]oxazin-3-yl)-4-fluoro-phenyl]-[3-(2,2,2-trifluoro-ethoxy)-quinolin-8-yl]-amine], with 2360 nM. Turning to `COc1cnc2c(Nc3cccc(C4(C)COCC(N)=N4)c3)cccc2c1` (stereo not shown) [Example 37, [3-(5-Amino-3-methyl-3,6-dihydro-2H-[1,4]oxazin-3-yl)-phenyl]-(3-methoxy-quinolin-8-yl)-amine], in assay [2], the IC50 turned out to be 120 nM. For `CC1(c2cccc(NC3CCc4cc(Cl)ccc43)c2)COCC(N)=N1` (stereo not shown) [Example 39, 5-[3-(5-Chloro-indan-1-ylamino)-phenyl]-5-methyl-5,6-dihydro-2H-[1,4]oxazin-3-ylamine], in assay [1], the IC50 stood at 180 nM.

With `C[C@@]1(c2cc(Nc3ccccc3OCC(F)(F)F)ccc2F)COCC(N)=N1` [Example 42, (R)-5-{2-Fluoro-5-[2-(2,2,2-trifluoro-ethoxy)-phenylamino]-phenyl}-5-methyl-5,6-dihydro-2H-[1,4]oxazin-3-ylamine], the IC50 in assay [1] worked out at 5200 nM.

As for `CC1(c2cccc(Nc3ccccc3OC(F)F)c2)COCC(N)=N1` (stereo not shown) [Example 44, 5-[3-(2-Difluoromethoxy-phenylamino)-phenyl]-5-methyl-5,6-dihydro-2H-[1,4]oxazin-3-ylamine], the IC50 in assay [1] is 890 nM.

Turning to `C[C@@]1(c2cc(NCc3nn(C(F)F)cc3Cl)ccc2F)COCC(N)=N1` [Example 45, (R)-5-{5-[(4-Chloro-1-difluoromethyl-1H-pyrazol-3-ylmethyl)-amino]-2-fluoro-phenyl}-5-methyl-5,6-dihydro-2H-[1,4]oxazin-3-ylamine], the IC50 in assay [1] is 17 nM. Turning to `CC1(c2cccc(Nc3cccc4oc(C5CC5)nc34)c2)COCC(N)=N1` (stereo not shown) [Example 46, [3-(5-Amino-3-methyl-3,6-dihydro-2H-[1,4]oxazin-3-yl)-phenyl]-(2-cyclopropyl-benzooxazol-4-yl)-amine], the IC50 in assay [2] is 300 nM.

For “(R)-5-{2-Fluoro-5-[2-(2-fluoro-ethoxy)-phenylamino]-phenyl}-5-methyl-5,6-dihydro-2H-[1,4]oxazin-3-ylamine [Example 43]”, the IC50 in assay [1] was 3200 nM.
